How the values were obtained:
WASp = target: T1, WASp (Homo sapiens, UniProt P42768); assay: WASp ubiquitylation in platelets (immunoprecipitation, anti-ubiquitin blot); assay type: cell-based; conditions: 15 min pre-incubation, vs activated untreated cells
T1 construct: endogenous in cells; host or cells: primary human platelets from healthy donors
T1 sequence (P42768 1-502): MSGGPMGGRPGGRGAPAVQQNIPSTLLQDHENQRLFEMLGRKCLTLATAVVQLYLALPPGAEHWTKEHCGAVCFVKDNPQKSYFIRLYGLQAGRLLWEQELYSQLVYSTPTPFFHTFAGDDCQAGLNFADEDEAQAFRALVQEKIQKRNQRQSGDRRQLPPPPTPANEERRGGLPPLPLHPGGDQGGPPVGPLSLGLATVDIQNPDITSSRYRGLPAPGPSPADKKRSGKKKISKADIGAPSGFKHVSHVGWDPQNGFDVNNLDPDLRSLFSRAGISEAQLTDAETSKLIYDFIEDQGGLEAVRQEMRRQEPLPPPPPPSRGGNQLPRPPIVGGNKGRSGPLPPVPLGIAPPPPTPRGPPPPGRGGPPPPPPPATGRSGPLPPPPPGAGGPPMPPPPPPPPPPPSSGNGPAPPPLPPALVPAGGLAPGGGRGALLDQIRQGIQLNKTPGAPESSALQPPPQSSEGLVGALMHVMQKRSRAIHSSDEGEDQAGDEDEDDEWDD
Experimental: FIGS. 12A and 12B. show freshly-isolated platelets that were either stimulated (+) with TRAP-6 (10 μM) or unstimulated (−) and pre-incubated at 37° C. for 15 min with either DMSO or the indicated WASp-binding SMCs (FIG. 12A—SMC #6; FIG. 12B—SMC #33), followed by lysis. Lysates were subjected to immunoprecipitation with anti-WASp antibody and were analyzed by western blotting with anti-ubiquitin (Ub) and with anti-WASp as precipitation control. Ubiquitylated WASp appears as a smear of bands above the molecular weight (MW) of 65 kDa with a prominent band at ˜81 kDa. Blots are representative of three independent experiments.
Immunoprecipitations and western blotting analysis were performed as previously described (Reicher et al, 2012). Briefly, platelets (2×10^8 cells per sample) were lysed by the addition of an equal volume of 2× lysis buffer (30 mM HEPES pH7.4, 300 mM NaCl, 2 mM phenylmethyl sulfonyl fluoride (PMSF), 2 mM sodium orthovanadate, 2% Triton X-100 and complete protease inhibitor tablets (Roche)). MEG-01 cells (2×10^7 cells per sample) were lysed in 1.25× lysis buffer. Proteasome activity was blocked by addition of MG132 (AdooQ) to platelets and Meg-01 cell medium at final concentration of 10 μM, for 1 h before the cells were harvested. […]

PBMCs = assay: Lymphocyte activation in PBMCs (CD69 and activated LFA-1, flow cytometry); assay type: cell-based, human; conditions: PBMCs stimulated with PMA and Ionomycin, vs control
Experimental: Figures show 1×10^6 PBMC cells/ml stimulated with PMA and Ionomycin that were treated with DMSO or WASp-binding SMCs. After incubation, the cells were stained with PE-Cy5™-conjugated mouse anti-human CD69 and lymphocyte activation was measured by flow-cytometry as described in the Experimental procedures. Histograms of DMSO versus SMC #6 (FIG. 8A), SMC #30 (FIG. 8B), SMC #33 (FIG. 8C), and SMC #34 (FIG. 8D) are presented and represent three independent experiments.
After incubation, the cells were stained with anti-activated LFA-1 antibody (KIM127), followed by staining with Alexa488-Fluor goat anti-mouse IgG1 secondary antibody, and lymphocyte activation was measured by flow-cytometry as described in the Experimental procedures. Histogram of negative control versus SMC #6 is presented.
PBMCs or Jurkat cells (about 3×10^5 cells) were incubated for 4 h, at 37° C. with 50 ng/ml PMA and 250 ng/ml lonomycin, or 40 ng/ml PMA and 6 μM Ionomycin, respectively, or left untreated. After incubation, the cells were collected and stained with 1 μg/ml anti-active human LFA-1 antibody (purified from KIM127 hybridoma sup, ATCC Cat #: CRL-2838, Sigma) for 30 min in 37° C., followed by staining with Alexa488-Fluor goat anti-mouse IgG1 secondary antibody (Molecular Probes, Cat #: A-21121), 30 min on ice. Cells were then co-stained with PE-Cy5™-conjugated mouse anti-human CD69 (BD Pharmingen, Cat #: 555532) to measure lymphocyte activation.
Lymphocyte activation is a hallmark of a normal immune response. To test whether treatment with WASp-binding SMCs could upregulate lymphocyte activation, freshly-isolated PBMCs were incubated with SMCs or control (solvent only) and stimulated with PMA and lonomycin. The cells were then stained with two different antibodies, which recognize two lymphocyte activation markers, CD69 and an epitope exposed at the active conformation of the integrin LFA-1 (KIM127). Both were detected by flow-cytometry.

Row | Structure (SMILES) | WASp ubiquitylation in active platelets (WASp) | lymphocyte activation (CD69, activated LFA-1) (PBMCs)
1 | Cc1ccccc1N(CC(=O)NCc1ccccc1)C(=O)CCC(=O)Nc1nccs1 [SMC #33, N′-[2-(benzylamino)-2-oxoethyl]-N′-(2-methylphenyl)-N-(1,3-thiazol-2-yl)butanediamide] | considerably decreased | upregulation of lymphocyte activation
2 | CC(=O)N[C@H]1C[C@@H](c2ccc3c(c2)nnn3C)O[C@@H](c2ccc(Cl)cc2)C1 [SMC #6, N-[(2R,4R,6S)-2-(4-chlorophenyl)-6-(1-methylbenzotriazol-5-yl)oxan-4-yl]acetamide] | considerably decreased | upregulation of lymphocyte activation
3 | CC1CCCC(C)N1C(=O)CSc1nnc(COc2cccc3cccnc23)o1 (centres unmarked) [SMC #34, 1-(2,6-dimethylpiperidin-1-yl)-2-[[5-(quinolin-8-yloxymethyl)-1,3,4-oxadiazol-2-yl]sulfanyl]ethanone] |  | upregulation of lymphocyte activation

Reference: patent US12150940B2, “WASp-protecting small molecules, compositions, methods and uses thereof in the treatment of innate and acquired immune-related disorders or conditions” (BAR ILAN UNIVERSITY, priority 2016, dated 2024)
